Test system: B. su
Test: Minimum Inhibitory Concentration assay, B. su
Assay type: cell-based
Settings: LB medium, 16 hours, 37° C.; Table 1
Description: (§1) For Minimum Inhibitory Concentration (MIC) determinations for selected bacteria, log phase growing bacteria are re-suspended at 1×10^5 bacteria per mL in LB medium. The compound is added and two-fold dilutions are made. The final volume in the 96-well plate is about 100 μL. The plate is incubated at 37° C. in the dark with shaking. After 16 hours of incubation, growth is monitored by reading A600 or by visual inspection. MIC is defined as the minimum concentration of drug resulting in inhibition of visible growth of bacterial under the conditions described (above) in National Committee for Clinical Laboratory Standards 1993. Methods for dilution antimicrobial susceptibility tests for bacteria that grow aerobically. Approved standard M7-A3; National Committee for Clinical Laboratory Standards: Villanova, Pa.
as §1, with “MIC” for “Minimum Inhibitory Concentration (MIC)”

Compound	MIC [µM]
Fc1ccc(-c2n[nH]cc2-c2ccc(NCCN3CCNCC3)c(C(F)(F)F)c2)cc1 [Example 20]	< 500
Fc1ccc(-c2n[nH]cc2-c2ccc(NCCNCc3ccccc3)c(C(F)(F)F)c2)cc1 [Example 21]	< 500
NS(=O)(=O)c1ccc(CCNc2ccc(-c3c[nH]nc3-c3ccc(F)cc3)cc2C(F)(F)F)cc1 [Example 22]	< 500
CS(=O)(=O)Nc1ccc(CCNc2ccc(-c3c[nH]nc3-c3ccc(F)cc3)cc2C(F)(F)F)cc1 [Example 23]	> 500
NC1CCN(c2ccc(-c3c[nH]nc3-c3ccc(F)cc3)cc2C(F)(F)F)C1 (centres unmarked) [Example 24]	< 500
O=C(Nc1ccc(Cl)c(C(F)(F)F)c1)NC1CCN(c2ccc(-c3c[nH]nc3-c3ccc(F)cc3)cc2C(F)(F)F)C1 (centres unmarked) [Example 25]	< 500
Fc1ccc(-c2n[nH]cc2-c2cc(F)cc(C(F)(F)F)c2)cc1 [Example 26]	< 500
NCCNc1cc(-c2c[nH]nc2-c2ccc(F)cc2)cc(C(F)(F)F)c1 [Example 27]	< 500
O=C(NCCNc1cc(-c2c[nH]nc2-c2ccc(F)cc2)cc(C(F)(F)F)c1)c1ccccc1 [Example 28]	< 500
O=C(NCCNc1cc(-c2c[nH]nc2-c2ccc(F)cc2)cc(C(F)(F)F)c1)Nc1ccc(Cl)c(C(F)(F)F)c1 [Example 29]	< 500

Same assay, conditions: LB medium, 16 hours, 37° C.; Table 2

Compound	MIC [µM]
O=c1[nH][nH]c(-c2cccc(C(F)(F)F)c2)c1-c1ccccc1 [Example 14, 4-phenyl-5-(3-trifluoromethylphenyl)-1,2-dihydropyrazol-3-one]	< 500
O=c1[nH][nH]c(-c2ccc(Cl)cc2)c1-c1ccccc1 [Example 15, 5-(4-chlorophenyl)-4-phenyl-1,2-dihydropyrazol-3-one]	< 500
O=c1[nH][nH]c(-c2ccccc2)c1-c1cccc(C(F)(F)F)c1 [Example 16, 5-phenyl-4-(3-trifluoromethylphenyl)-1,2-dihydropyrazol-3-one]	< 500
O=c1[nH][nH]c(-c2ccc(Cl)cc2)c1-c1cccc(C(F)(F)F)c1 [Example 17, 5-(4-chlorophenyl)-4-(3-trifluoromethylphenyl)-1,2-dihydropyrazol-3-one]	< 500

Biological target: T1, Sigma^70 saturated E. coli RNA Polymerase (Escherichia coli, UniProt P0A7Z4+P0A800+P0A8T7+P0A8V2)
T1 construct: purchased Epicenter
Test: IC50 assay, inhibition of RNA polymerase
Assay type: biochemical
Settings: Table 1, compounds of Formula 1
Description: One common assay involves evaluation of the compounds as RNA polymerase inhibitors. In this assay, buffer (250 mM KCl, 5% glycerol, 10 mM MgCl2, 0.1 mg/ml BSA) is combined with 6 mM β-M.E., PT5 DNA template, and 1.3 μg/rxn Sigma^70 saturated E. coli RNA Polymerase (Epicenter). The compound is then added in a manner not to exceed 5% DMSO. Nucleotide triphosphates are then added at the following concentration: 250 μM ATP, CTP and UTP with 100 μM cold CTP and 50 μM α-^32P CTP. The mixture is incubated for 10 min at about 37° C. A [2×] loading buffer is added and the mixture is then run on a 6% urea denaturing PAGE until bromophenol blue reaches the edge of plate. The gel is soaked (about 20 minutes in 10% MeOH and 10% acetic acid, to remove urea), then dried (about 55 minutes at about 85° C. (BioRad Gel Drier)) and exposed to a Phospho Imaging Plate for 1 hour. The plate is then read on a Fujix Bas1000 Imaging System and quantified using MacBas v2.0 software. An IC50 (in μM) can be calculated as the concentration of a drug which reduces the enzyme activity to 50% of the control.
In this assay, buffer (250 mM KCl, 5% Glycerol, 10 mM MgCl2, 0.1 mg/ml bovine serum albumin (BSA)) is combined with 6 mM β-mercaptoethanol, PT5 DNA template, and 1.3 μg/rxn Sigma^70 saturated E. coli RNA Polymerase (obtained from Epicenter). The compound is then added in a manner not to exceed 5% DMSO. Nucleotide triphosphates are then added at the following concentration: 250 μM ATP, CTP and UTP with 100 μM cold CTP and 50 μM α-32P CTP. The mixture is incubated for 10 min at about 37° C. A [2×] loading buffer is added and the mixture is then run on a 6% urea denaturing PAGE until bromophenol blue reaches the edge of plate. The gel is soaked (about 20 minutes in 10% MeOH and 10% acetic acid, to remove urea), then dried (about 55 minutes at about 85° C. (BioRad Gel Drier)) and exposed to a Phospho Imaging Plate for 1 hour. The plate is then read on a Fujix Bas1000 Imaging System and quantified using MacBas v2.0 software. An IC50 (in μM) can be calculated as the concentration of a compound of the invention that reduces the enzyme activity to 50% of the control. For the sake of clarity, the above-described assay is used to determine the IC50 values referenced in the claims. However, the skilled artisan will recognize that other methods can be used to determine an IC50 value.

T1 sequence (P0A8V2 whole entry): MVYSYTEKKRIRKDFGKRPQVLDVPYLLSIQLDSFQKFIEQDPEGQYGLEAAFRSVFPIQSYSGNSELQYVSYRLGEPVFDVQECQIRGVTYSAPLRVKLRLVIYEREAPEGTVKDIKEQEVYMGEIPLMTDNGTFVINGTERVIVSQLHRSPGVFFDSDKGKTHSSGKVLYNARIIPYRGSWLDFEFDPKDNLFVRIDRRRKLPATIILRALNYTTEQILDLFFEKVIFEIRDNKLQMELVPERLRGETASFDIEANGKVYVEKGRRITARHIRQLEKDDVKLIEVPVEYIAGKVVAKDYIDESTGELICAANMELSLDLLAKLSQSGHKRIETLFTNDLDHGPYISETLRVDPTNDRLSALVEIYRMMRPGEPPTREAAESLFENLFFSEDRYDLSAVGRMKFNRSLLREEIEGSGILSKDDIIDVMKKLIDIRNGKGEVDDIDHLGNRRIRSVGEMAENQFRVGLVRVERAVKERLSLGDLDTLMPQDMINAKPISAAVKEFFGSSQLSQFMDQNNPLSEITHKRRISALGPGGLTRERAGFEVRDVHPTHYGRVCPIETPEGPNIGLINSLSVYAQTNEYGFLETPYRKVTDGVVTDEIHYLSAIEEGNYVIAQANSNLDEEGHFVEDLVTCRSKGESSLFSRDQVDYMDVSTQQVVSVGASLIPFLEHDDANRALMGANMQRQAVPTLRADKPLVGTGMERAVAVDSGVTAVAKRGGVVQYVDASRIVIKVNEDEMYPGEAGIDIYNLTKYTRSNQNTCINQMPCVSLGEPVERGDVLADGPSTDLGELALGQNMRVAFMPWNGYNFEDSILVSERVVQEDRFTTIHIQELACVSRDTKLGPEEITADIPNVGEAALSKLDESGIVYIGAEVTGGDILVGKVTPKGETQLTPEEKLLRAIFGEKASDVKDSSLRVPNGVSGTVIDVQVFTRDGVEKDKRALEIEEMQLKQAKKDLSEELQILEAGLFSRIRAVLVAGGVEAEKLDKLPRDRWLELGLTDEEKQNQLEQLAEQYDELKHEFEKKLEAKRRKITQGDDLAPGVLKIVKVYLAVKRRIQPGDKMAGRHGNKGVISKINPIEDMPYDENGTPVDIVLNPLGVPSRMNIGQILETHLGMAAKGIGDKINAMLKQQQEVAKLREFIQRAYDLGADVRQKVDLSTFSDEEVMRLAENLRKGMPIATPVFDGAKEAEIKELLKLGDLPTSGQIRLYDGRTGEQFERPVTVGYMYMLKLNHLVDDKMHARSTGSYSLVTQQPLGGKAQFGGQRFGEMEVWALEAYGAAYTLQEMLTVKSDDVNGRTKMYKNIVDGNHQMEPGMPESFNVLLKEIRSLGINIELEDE
T1 sequence (P0A8T7 whole entry): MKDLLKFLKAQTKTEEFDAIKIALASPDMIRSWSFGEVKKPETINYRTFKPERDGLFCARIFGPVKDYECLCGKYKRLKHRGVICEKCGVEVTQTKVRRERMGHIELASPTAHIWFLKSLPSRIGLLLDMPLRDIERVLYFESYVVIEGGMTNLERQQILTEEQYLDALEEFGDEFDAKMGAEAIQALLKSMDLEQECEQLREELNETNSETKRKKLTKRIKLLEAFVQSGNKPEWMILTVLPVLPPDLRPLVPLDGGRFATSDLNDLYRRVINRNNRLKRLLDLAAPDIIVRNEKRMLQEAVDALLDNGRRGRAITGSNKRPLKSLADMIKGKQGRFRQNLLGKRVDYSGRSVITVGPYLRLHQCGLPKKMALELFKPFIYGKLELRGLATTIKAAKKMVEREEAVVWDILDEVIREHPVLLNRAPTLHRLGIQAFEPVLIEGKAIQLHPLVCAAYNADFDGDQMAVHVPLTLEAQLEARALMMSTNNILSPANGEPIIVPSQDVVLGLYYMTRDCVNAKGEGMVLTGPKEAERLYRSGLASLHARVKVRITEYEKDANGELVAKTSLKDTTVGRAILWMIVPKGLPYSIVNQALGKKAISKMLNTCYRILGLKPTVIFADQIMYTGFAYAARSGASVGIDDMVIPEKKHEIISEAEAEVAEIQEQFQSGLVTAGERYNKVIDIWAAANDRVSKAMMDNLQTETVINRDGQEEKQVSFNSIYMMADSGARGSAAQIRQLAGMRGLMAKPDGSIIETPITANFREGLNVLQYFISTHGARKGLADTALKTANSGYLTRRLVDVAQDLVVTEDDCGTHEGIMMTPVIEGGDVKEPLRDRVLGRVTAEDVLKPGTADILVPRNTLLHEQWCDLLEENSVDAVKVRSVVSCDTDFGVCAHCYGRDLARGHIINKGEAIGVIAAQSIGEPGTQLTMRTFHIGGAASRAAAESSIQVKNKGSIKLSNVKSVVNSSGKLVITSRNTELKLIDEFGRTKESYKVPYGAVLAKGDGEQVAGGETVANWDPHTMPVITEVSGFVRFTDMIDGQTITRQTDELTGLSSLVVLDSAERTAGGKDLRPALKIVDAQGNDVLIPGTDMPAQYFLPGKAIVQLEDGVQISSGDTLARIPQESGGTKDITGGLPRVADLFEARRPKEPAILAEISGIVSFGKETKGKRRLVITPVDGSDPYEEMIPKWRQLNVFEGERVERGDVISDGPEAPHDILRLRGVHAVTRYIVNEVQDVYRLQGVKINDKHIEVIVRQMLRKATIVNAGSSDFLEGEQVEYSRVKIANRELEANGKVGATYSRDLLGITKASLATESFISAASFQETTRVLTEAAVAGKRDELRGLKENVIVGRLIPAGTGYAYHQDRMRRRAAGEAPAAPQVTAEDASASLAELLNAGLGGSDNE
T1 sequence (P0A7Z4 whole entry): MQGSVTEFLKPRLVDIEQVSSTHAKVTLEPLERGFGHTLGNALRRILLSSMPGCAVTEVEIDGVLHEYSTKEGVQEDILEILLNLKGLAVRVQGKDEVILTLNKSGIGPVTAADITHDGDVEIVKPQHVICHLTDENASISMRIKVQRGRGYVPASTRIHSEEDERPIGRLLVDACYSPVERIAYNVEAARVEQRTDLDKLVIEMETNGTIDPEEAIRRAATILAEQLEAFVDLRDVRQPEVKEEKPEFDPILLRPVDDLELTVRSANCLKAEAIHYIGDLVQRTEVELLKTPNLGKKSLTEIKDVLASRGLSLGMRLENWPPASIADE
T1 sequence (P0A800 whole entry): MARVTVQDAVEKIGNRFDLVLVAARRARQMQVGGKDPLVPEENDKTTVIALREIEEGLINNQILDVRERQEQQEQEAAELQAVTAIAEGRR

Compound	IC50 [µM]
Fc1ccc(-c2n[nH]cc2-c2ccc(NCCN3CCNCC3)c(C(F)(F)F)c2)cc1 [Example 20]	< 500
Fc1ccc(-c2n[nH]cc2-c2ccc(NCCNCc3ccccc3)c(C(F)(F)F)c2)cc1 [Example 21]	< 500
NS(=O)(=O)c1ccc(CCNc2ccc(-c3c[nH]nc3-c3ccc(F)cc3)cc2C(F)(F)F)cc1 [Example 22]	< 500
CS(=O)(=O)Nc1ccc(CCNc2ccc(-c3c[nH]nc3-c3ccc(F)cc3)cc2C(F)(F)F)cc1 [Example 23]	> 500
NC1CCN(c2ccc(-c3c[nH]nc3-c3ccc(F)cc3)cc2C(F)(F)F)C1 (centres unmarked) [Example 24]	< 500
O=C(Nc1ccc(Cl)c(C(F)(F)F)c1)NC1CCN(c2ccc(-c3c[nH]nc3-c3ccc(F)cc3)cc2C(F)(F)F)C1 (centres unmarked) [Example 25]	< 500
Fc1ccc(-c2n[nH]cc2-c2cc(F)cc(C(F)(F)F)c2)cc1 [Example 26]	< 500
NCCNc1cc(-c2c[nH]nc2-c2ccc(F)cc2)cc(C(F)(F)F)c1 [Example 27]	< 500
O=C(NCCNc1cc(-c2c[nH]nc2-c2ccc(F)cc2)cc(C(F)(F)F)c1)c1ccccc1 [Example 28]	> 500
O=C(NCCNc1cc(-c2c[nH]nc2-c2ccc(F)cc2)cc(C(F)(F)F)c1)Nc1ccc(Cl)c(C(F)(F)F)c1 [Example 29]	< 500

Same assay, conditions: Table 2, compounds of Formula 13

Compound	IC50 [µM]
O=c1[nH][nH]c(-c2cccc(C(F)(F)F)c2)c1-c1ccccc1 [Example 14, 4-phenyl-5-(3-trifluoromethylphenyl)-1,2-dihydropyrazol-3-one]	< 500
O=c1[nH][nH]c(-c2ccc(Cl)cc2)c1-c1ccccc1 [Example 15, 5-(4-chlorophenyl)-4-phenyl-1,2-dihydropyrazol-3-one]	> 500
O=c1[nH][nH]c(-c2ccccc2)c1-c1cccc(C(F)(F)F)c1 [Example 16, 5-phenyl-4-(3-trifluoromethylphenyl)-1,2-dihydropyrazol-3-one]	> 500
O=c1[nH][nH]c(-c2ccc(Cl)cc2)c1-c1cccc(C(F)(F)F)c1 [Example 17, 5-(4-chlorophenyl)-4-(3-trifluoromethylphenyl)-1,2-dihydropyrazol-3-one]	< 500

Test system: S. au
Test: Minimum Inhibitory Concentration assay, S. au
Assay type: cell-based
Settings: LB medium, 16 hours, 37° C.; Table 1
Description: as §1
as §1, with “MIC” for “Minimum Inhibitory Concentration (MIC)”

Compound	MIC [µM]
Fc1ccc(-c2n[nH]cc2-c2ccc(NCCN3CCNCC3)c(C(F)(F)F)c2)cc1 [Example 20]	< 500
Fc1ccc(-c2n[nH]cc2-c2ccc(NCCNCc3ccccc3)c(C(F)(F)F)c2)cc1 [Example 21]	< 500
NS(=O)(=O)c1ccc(CCNc2ccc(-c3c[nH]nc3-c3ccc(F)cc3)cc2C(F)(F)F)cc1 [Example 22]	< 500
CS(=O)(=O)Nc1ccc(CCNc2ccc(-c3c[nH]nc3-c3ccc(F)cc3)cc2C(F)(F)F)cc1 [Example 23]	> 500
NC1CCN(c2ccc(-c3c[nH]nc3-c3ccc(F)cc3)cc2C(F)(F)F)C1 (centres unmarked) [Example 24]	< 500
O=C(Nc1ccc(Cl)c(C(F)(F)F)c1)NC1CCN(c2ccc(-c3c[nH]nc3-c3ccc(F)cc3)cc2C(F)(F)F)C1 (centres unmarked) [Example 25]	< 500
Fc1ccc(-c2n[nH]cc2-c2cc(F)cc(C(F)(F)F)c2)cc1 [Example 26]	< 500
NCCNc1cc(-c2c[nH]nc2-c2ccc(F)cc2)cc(C(F)(F)F)c1 [Example 27]	< 500
O=C(NCCNc1cc(-c2c[nH]nc2-c2ccc(F)cc2)cc(C(F)(F)F)c1)c1ccccc1 [Example 28]	< 500
O=C(NCCNc1cc(-c2c[nH]nc2-c2ccc(F)cc2)cc(C(F)(F)F)c1)Nc1ccc(Cl)c(C(F)(F)F)c1 [Example 29]	< 500

Same assay, conditions: LB medium, 16 hours, 37° C.; Table 2

Compound	MIC [µM]
O=c1[nH][nH]c(-c2cccc(C(F)(F)F)c2)c1-c1ccccc1 [Example 14, 4-phenyl-5-(3-trifluoromethylphenyl)-1,2-dihydropyrazol-3-one]	< 500
O=c1[nH][nH]c(-c2ccc(Cl)cc2)c1-c1ccccc1 [Example 15, 5-(4-chlorophenyl)-4-phenyl-1,2-dihydropyrazol-3-one]	< 500
O=c1[nH][nH]c(-c2ccccc2)c1-c1cccc(C(F)(F)F)c1 [Example 16, 5-phenyl-4-(3-trifluoromethylphenyl)-1,2-dihydropyrazol-3-one]	< 500
O=c1[nH][nH]c(-c2ccc(Cl)cc2)c1-c1cccc(C(F)(F)F)c1 [Example 17, 5-(4-chlorophenyl)-4-(3-trifluoromethylphenyl)-1,2-dihydropyrazol-3-one]	< 500

Test system: E.c(tolC)
Test: Minimum Inhibitory Concentration assay, E.c(tolC)
Assay type: cell-based
Settings: 16 h, read-out: MIC (μM) E.c(tolC)
Description: as §1
as §1, with “MIC” for “Minimum Inhibitory Concentration (MIC)”

Compound	MIC [µM]
O=c1[nH][nH]c(-c2cccc(C(F)(F)F)c2)c1-c1ccccc1 [Example 14, 4-phenyl-5-(3-trifluoromethylphenyl)-1,2-dihydropyrazol-3-one]	< 500
O=c1[nH][nH]c(-c2ccc(Cl)cc2)c1-c1ccccc1 [Example 15, 5-(4-chlorophenyl)-4-phenyl-1,2-dihydropyrazol-3-one]	< 500
O=c1[nH][nH]c(-c2ccccc2)c1-c1cccc(C(F)(F)F)c1 [Example 16, 5-phenyl-4-(3-trifluoromethylphenyl)-1,2-dihydropyrazol-3-one]	< 500
O=c1[nH][nH]c(-c2ccc(Cl)cc2)c1-c1cccc(C(F)(F)F)c1 [Example 17, 5-(4-chlorophenyl)-4-(3-trifluoromethylphenyl)-1,2-dihydropyrazol-3-one]	< 500
Fc1ccc(-c2n[nH]cc2-c2ccc(NCCN3CCNCC3)c(C(F)(F)F)c2)cc1 [Example 20]	< 500
Fc1ccc(-c2n[nH]cc2-c2ccc(NCCNCc3ccccc3)c(C(F)(F)F)c2)cc1 [Example 21]	< 500
NS(=O)(=O)c1ccc(CCNc2ccc(-c3c[nH]nc3-c3ccc(F)cc3)cc2C(F)(F)F)cc1 [Example 22]	< 500
CS(=O)(=O)Nc1ccc(CCNc2ccc(-c3c[nH]nc3-c3ccc(F)cc3)cc2C(F)(F)F)cc1 [Example 23]	> 500
NC1CCN(c2ccc(-c3c[nH]nc3-c3ccc(F)cc3)cc2C(F)(F)F)C1 (centres unmarked) [Example 24]	< 500
O=C(Nc1ccc(Cl)c(C(F)(F)F)c1)NC1CCN(c2ccc(-c3c[nH]nc3-c3ccc(F)cc3)cc2C(F)(F)F)C1 (centres unmarked) [Example 25]	> 500
Fc1ccc(-c2n[nH]cc2-c2cc(F)cc(C(F)(F)F)c2)cc1 [Example 26]	< 500
NCCNc1cc(-c2c[nH]nc2-c2ccc(F)cc2)cc(C(F)(F)F)c1 [Example 27]	< 500
O=C(NCCNc1cc(-c2c[nH]nc2-c2ccc(F)cc2)cc(C(F)(F)F)c1)c1ccccc1 [Example 28]	< 500
O=C(NCCNc1cc(-c2c[nH]nc2-c2ccc(F)cc2)cc(C(F)(F)F)c1)Nc1ccc(Cl)c(C(F)(F)F)c1 [Example 29]	> 500

— patent US20020049205A1, “Pyrazole antimicrobial agents” (priority 2000, published 2002)
